Values quoted from earlier work as cited in patent US8273371B2, “Crystalline mesoporous oxide based materials useful for the fixation and controlled release of drugs” (priority 2003, dated 2012).
Where “and” joins values, the source holds several entries; their conditions need not be identical. Identical values can stand only once.

Tests used:
[1] = not given; remark: listed apart in the source
[2] = ibuprofen loaded on mesoporous oxide material
[3] = from 50° C. to 130° C.
[4] = capsules with granulate of drug, surfactants, cyclodextrin, Avicel PH 101 and Primojel

In the case of `CC/C(=C(/CC)c1ccc(O)cc1)c1ccc(O)cc1` [diethylstilbestrol], the “solubility in water” value is listed as “virtually insoluble in water”.

For `CS(=O)(=O)c1ccc([C@@H](O)[C@@H](CF)NC(=O)C(Cl)Cl)cc1` [florfenicol, D-(threo)-1-p-methylsulfonyl phenyl-2-dichloroacetamido-3-fluoro-1-propanol], the oral bioavailability [1] is listed as “good oral bioavailability”.

For `CC(C)Cc1ccc(C(C)C(=O)O)cc1` (centres unmarked) [ibuprofen], the “drug release after 20 hours” value ([2]; after 20 hours) is given as 60%, the “drug release after 24 hours” value ([2]; after 24 hours) is given as 55% and 68% and the “maximum release at the third day” value ([2]; third day) is given as 80%.

For `CCC(C)n1ncn(-c2ccc(N3CCN(c4ccc(OCC5COC(Cn6cncn6)(c6ccc(Cl)cc6Cl)O5)cc4)CC3)cc2)c1=O` (centres unmarked) [itraconazole], the “solubility in supercritical carbon dioxide” value [3] is given as “relatively poor”.

In the case of `CC(C)(C)c1ccc(C(O)CCCN2CCC(C(O)(c3ccccc3)c3ccccc3)CC2)cc1` (centres unmarked) [terfenadine], the “drug release within 45 minutes” value [4] is listed as 90% and the water-solubility (in water) is listed as “less than 0.01 mg/ml”.
